Assay results published in article PMC12703733, “Probing Guanidino Pendant or Bridged Groups in Cyclic Antimicrobial Peptides Derived from Temporin L: A Strategy to Improve Efficacy against Gram-Negative Bacteria” (Journal of Medicinal Chemistry, 2025).
Bridge positions count the residues as written; N and C are the ends. Square brackets hold non-standard residues; d marks the D form. Peptide text beside a SMILES is read from it.

Tested on: S. aureus ATCC 25923 biofilm
Experiment: Activity against preformed biofilm (MTT)
Type: cell-based
Conditions: concentrations below 25 μM
Protocol: The antibiofilm activity was evaluated as elsewhere reported. Bacteria grew at 37 °C until they reached an optical density (OD) of 0.8 (λ = 590 nm). The culture was diluted to a cell density of 1 × 10^6 colony-forming units (CFUs)/mL and aliquots of 100 μL of this suspension were dispensed into the wells of a 96-multiwell plate. After biofilm formation (incubation time = 20 h at 37 °C), all the planktonic cells were removed, and the wells were washed twice with PBS (150 μL). After washing, the wells were filled with PBS supplemented with different 2-fold serial dilutions of the tested peptides (from 50 to 1.56 μM). After peptide treatment (incubation time = 2 h at 37 °C) the wells were washed with PBS twice and filled with 150 μL of MTT (0.5 mg/mL) to evaluate biofilm viability after 4 h incubation at 37 °C. The reaction was then stopped by adding SDS (final concentration equal to 5% v/v). A microplate reader (Infinite M200; Tecan, Salzburg, Austria) was used to measure the absorbance of each well at 570 nm and the percentage of biofilm viability was calculated relative to the untreated samples.

CC[C@H](C)[C@H](NC(=O)[C@H](CCCNC(=N)N)NC(=O)[C@H]1CCC(=O)NCCCC[C@H](NC(=O)[C@H](Cc2ccccc2)NC(=O)[C@H](Cc2c[nH]c3ccccc23)NC(=O)[C@@H]2CCCN2C(=O)[C@@H](NC(=O)[C@@H](N)Cc2ccccc2)C(C)C)C(=O)N[C@@H](CCCCN)C(=O)N[C@@H](Cc2ccccc2)C(=O)N[C@H](CC(C)C)C(=O)N1)C(=O)N[C@@H](CC(C)C)C(N)=O [Peptide 2, FVPWF[KKFle]RIL] (H-FVPWFKKF[dL][dE]RIL-NH2; lactam 6-10)
antibiofilm activity (in words): weaker or no activity
